According to patent US11345711B2, “8,9-dihydroimidazo[1,2-a]pyrimido[5,4-e]pyrimidin-5(6H)-ones” (IMPACT THERAPEUTICS (SHANGHAI), INC, priority 2016, dated 2022):
Like-named read-outs stand apart in the source and are kept apart here.

Legend:
[1] = target: Wee1 (h) (Homo sapiens, UniProt P30291); test: Wee1 kinase (h) detection method, [γ-33P]-ATP filter assay; format: biochemical
[2] = system: LoVo cells; test: MTT based cell viability assay on LoVo cells; details: Homo sapiens, LoVo, 72 h, 3 d, read-out: IC50, growth inhibition of LoVo cells
Summary of the method: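 Inhibition of LoVo proliferation was derived as IC50 from a sigmoidal dose-response fit of cell survival. Readout was MTT (0.5 mg/mL, 4 h) with absorbance at 552/630/690 nm, after 3-day treatment at 37 °C. Eight-point series from 10 μM to 0.01 μM, DMSO control, 1% DMSO final.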

[3] = system: NCI-H1299 cells; test: MTT based cell viability assay on NCI-H1299 cells; details: Homo sapiens, read-out: IC50, growth inhibition of NCI-H1299 cells
Summary of the method: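 NCI-H1299 cells (1000/well, settled overnight) were exposed for 3 d at 37 °C, 5% CO2, to an eight-point series of 10 μM to 0.01 μM plus DMSO blank, as prepared in DMSO (final DMSO 1‰). MTT (0.5 mg/mL, 4 h) was read at 552/630/690 nm. IC50 came from sigmoidal dose-response fits of survival.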

Wee1 (h), sequence (P30291 whole entry): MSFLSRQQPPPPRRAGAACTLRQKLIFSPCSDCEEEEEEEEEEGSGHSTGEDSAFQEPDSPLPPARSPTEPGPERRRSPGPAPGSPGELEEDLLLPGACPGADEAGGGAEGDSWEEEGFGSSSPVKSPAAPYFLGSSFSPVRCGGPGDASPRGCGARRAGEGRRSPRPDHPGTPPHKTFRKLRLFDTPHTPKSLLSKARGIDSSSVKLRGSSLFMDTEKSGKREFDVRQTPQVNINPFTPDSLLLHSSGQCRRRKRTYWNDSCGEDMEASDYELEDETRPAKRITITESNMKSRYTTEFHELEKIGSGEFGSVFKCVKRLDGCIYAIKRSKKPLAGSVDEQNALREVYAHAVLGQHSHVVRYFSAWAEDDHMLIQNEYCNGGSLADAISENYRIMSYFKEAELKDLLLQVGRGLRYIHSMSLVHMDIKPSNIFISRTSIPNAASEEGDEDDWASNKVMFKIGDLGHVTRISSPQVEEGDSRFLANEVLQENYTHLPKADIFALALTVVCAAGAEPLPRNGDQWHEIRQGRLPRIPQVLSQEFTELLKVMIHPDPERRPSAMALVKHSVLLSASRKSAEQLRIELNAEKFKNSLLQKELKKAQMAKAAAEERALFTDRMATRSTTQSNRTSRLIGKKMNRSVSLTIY

| Inh. (%) of Wee1 kinase enzyme activity ([1]; C 0.01 μm compound) [%] | Inh. (%) of Wee1 kinase enzyme activity ([1]; C 0.1 μm compound) [%] | Inh. (%) of Wee1 kinase enzyme activity ([1]; C 1 μm compound) [%] | IC50 [2] [nM] | IC50 ([3]; NCI-H1299, NCI-H1299 cells) [nM] | IC50 ([3]; NCI-H1299 cells) [nM] | SMILES |
| --- | --- | --- | --- | --- | --- | --- |
| 43 | 87 | 97 | 39.1 | 218 |  | Cc1cc(Nc2ncc3c(n2)N2CCN=C2N(c2c(F)cccc2Cl)C3=O)cc(F)c1N1CCN(C)CC1 [Example 123, 6-(2-Chloro-6-fluorophenyl)-2-((3-fluoro-5-methyl-4-(4-methylpiperazin-1-yl)phenyl)amino)-8,9-dihydroimidazo[1,2-a]pyrimido[5,4-e]pyrimidin-5(6H)-one] |
| 18 | 62 | 92 | 49.7 | 138 |  | COc1cc(Nc2ncc3c(n2)N2CCN=C2N(c2c(F)cccc2Cl)C3=O)cc(F)c1N1CCN(C)CC1 [Example 124, 6-(2-Chloro-6-fluorophenyl)-2-((3-fluoro-5-methoxy-4-(4-methylpiperazin-1-yl)phenyl)amino)-8,9-dihydroimidazo[1,2-a]pyrimido[5,4-e]pyrimidin-5(6H)-one] |
| 18 | 74 | 95 | 26.4 | 92.9 |  | Cc1cc(Nc2ncc3c(n2)N2CCN=C2N(c2c(F)cccc2Cl)C3=O)cc(Cl)c1N1CCN(C)CC1 [Example 125, 6-(2-Chloro-6-fluorophenyl)-2-((3-chloro-5-methyl-4-(4-methylpiperazin-1-yl)phenyl)amino)-8,9-dihydroimidazo[1,2-a]pyrimido[5,4-e]pyrimidin-5(6H)-one] |
|  |  | 89 | 56.7 | 67 |  | COc1cc(Nc2ncc3c(n2)N2CCN=C2N(c2c(F)cccc2Cl)C3=O)cc(Cl)c1N1CCN(C)CC1 [Example 126, 6-(2-Chloro-6-fluorophenyl)-2-((3-chloro-5-methoxy-4-(4-methylpiperazin-1-yl)phenyl)amino)-8,9-dihydroimidazo[1,2-a]pyrimido[5,4-e]pyrimidin-5(6H)-one] |
|  |  | 88 | 42.3 |  | 96.5 | COc1cc(Nc2ncc3c(n2)N2CCN=C2N(c2c(F)cccc2Cl)C3=O)cc(Br)c1N1CCN(C)CC1 [Example 127, 6-(2-Chloro-6-fluorophenyl)-2-((3-bromo-5-methoxy-4-(4-methylpiperazin-1-yl)phenyl)amino)-8,9-dihydroimidazo[1,2-a]pyrimido[5,4-e]pyrimidin-5(6H)-one] |
| 8 | 61 | 89 | 68.8 | 306 |  | Cc1cc(Nc2ncc3c(n2)N2CCN=C2N(c2c(F)cccc2Cl)C3=O)cc(C(F)(F)F)c1N1CCN(C)CC1 [Example 128, 6-(2-Chloro-6-fluorophenyl)-2-((3-methyl-4-(4-methylpiperazin-1-yl)-5-(trifluoromethyl)phenyl)amino)-8,9-dihydroimidazo[1,2-a]pyrimido[5,4-e]pyrimidin-5(6H)-one] |
| 26 | 73 | 93 | 70.3 | 78.2 |  | COc1cc(Nc2ncc3c(n2)N2CCN=C2N(c2c(F)cccc2Cl)C3=O)cc(C)c1N1CCN(C)CC1 [Example 129, 6-(2-Chloro-6-fluorophenyl)-2-((3-methoxy-5-methyl-4-(4-methylpiperazin-1-yl)phenyl)amino)-8,9-dihydroimidazo[1,2-a]pyrimido[5,4-e]pyrimidin-5(6H)-one] |
|  |  | 93 | 624 |  | 243 | CN1CCc2c(Cl)cc(Nc3ncc4c(n3)N3CCN=C3N(c3c(Cl)cccc3Cl)C4=O)cc2C1 [Example 130, 6-(2,6-Dichlorophenyl)-2-((5-chloro-2-methyl-1,2,3,4-tetrahydroisoquinolin-7-yl)amino)-8,9-dihydroimidazo[1,2-a]pyrimido[5,4-e]pyrimidin-5(6H)-one] |
| 27 | 89 | 100 | 187 | 58.8 |  | Cc1cc(Nc2ncc3c(n2)N2CCN=C2N(c2c(Cl)cccc2Cl)C3=O)cc2c1CCN(C)C2 [Example 131, 6-(2,6-Dichlorophenyl)-2-((2,5-dimethyl-1,2,3,4-tetrahydroisoquinolin-7-yl)amino)-8,9-dihydroimidazo[1,2-a]pyrimido[5,4-e]pyrimidin-5(6H)-one] |
|  |  | 95 | 165 | 46 |  | Cc1cc(Nc2ncc3c(n2)N2CCN=C2N(c2c(Cl)cccc2Cl)C3=O)cc2c1C(C)(C)CN(C)C2 [Example 133, 6-(2,6-Dichlorophenyl)-2-((2,4,4,5-tetramethyl-1,2,3,4-tetrahydroisoquinolin-7-yl)amino)-8,9-dihydroimidazo[1,2-a]pyrimido[5,4-e]pyrimidin-5(6H)-one] |
| 36 | 75 | 94 | 214 | 310 |  | C[C@@H]1CN(c2c(Cl)cc(Nc3ncc4c(n3)N3CCN=C3N(c3c(Cl)cccc3Cl)C4=O)cc2Cl)C[C@H](C)N1C [Example 136, 6-(2,6-Dichlorophenyl)-2-((3,5-dichloro-4-((3S,5R)-3,4,5-trimethylpiperazin-1-yl)phenyl)amino)-8,9-dihydroimidazo[1,2-a]pyrimido[5,4-e]pyrimidin-5(6H)-one] |
| 20 | 78 | 96 | 114 | 122 |  | Cc1cc(Nc2ncc3c(n2)N2CCN=C2N(c2c(Cl)cccc2Cl)C3=O)cc(Cl)c1N1C[C@@H](C)N(C)[C@@H](C)C1 [Example 137, 6-(2,6-Dichlorophenyl)-2-((3-chloro-5-methyl-4-((3S,5R)-3,4,5-trimethylpiperazin-1-yl)phenyl)amino)-8,9-dihydroimidazo[1,2-a]pyrimido[5,4-e]pyrimidin-5(6H)-one] |
| 22 | 77 | 96 | 199 | 170 |  | CN(C)C1CCN(c2ccc(Nc3ncc4c(n3)N3CCN=C3N(c3c(Cl)cccc3Cl)C4=O)cc2)CC1 [Example 138, 6-(2,6-Dichlorophenyl)-2-((4-(4-(dimethylamino)piperidin-1-yl)phenyl)amino)-8,9-dihydroimidazo[1,2-a]pyrimido[5,4-e]pyrimidin-5(6H)-one] |
| 31 | 81 | 95 | 45.6 | 85.9 |  | CN(C)C1CCN(c2ccc(Nc3ncc4c(n3)N3CCN=C3N(c3c(Cl)cccc3Cl)C4=O)cc2Cl)CC1 [Example 139, 6-(2,6-Dichlorophenyl)-2-((3-chloro-4-(4-(dimethylamino)piperidin-1-yl)phenyl)amino)-8,9-dihydroimidazo[1,2-a]pyrimido[5,4-e]pyrimidin-5(6H)-one] |
| 32 | 82 | 98 | 58.2 | 92.9 |  | CN(C)C1CCN(c2ccc(Nc3ncc4c(n3)N3CCN=C3N(c3c(Cl)cccc3Cl)C4=O)cc2Br)CC1 [Example 140, 6-(2,6-Dichlorophenyl)-2-((3-bromo-4-(4-(dimethylamino)piperidin-1-yl)phenyl)amino)-8,9-dihydroimidazo[1,2-a]pyrimido[5,4-e]pyrimidin-5(6H)-one] |
| 22 | 75 | 95 | 51.4 | 109 |  | CN(C)C1CCN(c2c(Cl)cc(Nc3ncc4c(n3)N3CCN=C3N(c3c(Cl)cccc3Cl)C4=O)cc2Cl)CC1 [Example 142, 6-(2,6-Dichlorophenyl)-2-((3,5-dichloro-4-(4-(dimethylamino)piperidin-1-yl)phenyl)amino)-8,9-dihydroimidazo[1,2-a]pyrimido[5,4-e]pyrimidin-5(6H)-one] |
| 19 | 76 | 97 | 61.5 | 140 |  | COc1cc(Nc2ncc3c(n2)N2CCN=C2N(c2c(Cl)cccc2Cl)C3=O)cc(Cl)c1N1CCC(N(C)C)CC1 [Example 144, 6-(2,6-Dichlorophenyl)-2-((3-chloro-4-(4-(dimethylamino)piperidin-1-yl)-5-methoxyphenyl)amino)-8,9-dihydroimidazo[1,2-a]pyrimido[5,4-e]pyrimidin-5(6H)-one] |
| 21 | 72 | 97 | 84.9 |  | 219 | CN1CCN(c2ccc(Nc3ncc4c(n3)N3CCN=C3N(c3c(Cl)cccc3Cl)C4=O)cc2Br)CC1 [Example 145, 6-(2,6-Dichlorophenyl)-2-((3-bromo-4-(4-methylpiperazin-1-yl)phenyl)amino)-8,9-dihydroimidazo[1,2-a]pyrimido[5,4-e]pyrimidin-5(6H)-one] |
